Each structure is given as a SMILES string. Some results are limits rather than exact numbers.

Holding throughout (format): biochemical
One test deals with T1, Human Tyk2 kinase domain (Homo sapiens, UniProt P29597).
T1 construct: comprising amino acids 886 to 1187 with 10 additional histidine residues; 10xHis (histidine tag) (C, cleaved yes); made in house
T1 sequence (P29597 886-1187): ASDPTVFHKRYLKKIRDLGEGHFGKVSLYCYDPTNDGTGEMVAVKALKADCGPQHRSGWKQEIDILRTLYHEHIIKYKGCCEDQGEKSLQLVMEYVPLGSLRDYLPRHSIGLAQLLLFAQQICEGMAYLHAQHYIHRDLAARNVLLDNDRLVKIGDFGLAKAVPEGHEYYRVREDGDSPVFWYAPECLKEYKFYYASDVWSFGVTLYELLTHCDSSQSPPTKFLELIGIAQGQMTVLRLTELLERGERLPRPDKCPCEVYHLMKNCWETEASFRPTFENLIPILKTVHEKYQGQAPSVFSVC
As to the kind of experiment: Tyk2 Inhibition Assay (Omnia kinase fluorescence peptide substrate assay). Conditions: averaged IC50 ranges; assay of Example A; 10 μM (Km app) or 1 mM ATP, 2 nM Tyk2. The source says: (§1) The assays described in Examples A, B, C and D for the determination of Tyk2, JAK1, JAK2 and JAK3 kinase activity, respectively, utilized the Omnia® Kinase fluorescence peptide substrate-based technology (Invitrogen). The specific components of the assay mixture are described in Examples A, B, C and D. In these assays, Mg^2+ is chelated upon phosphorylation of the Omnia peptide by the kinase to form a bridge between the chelation-enhanced fluorophore Sox and the phosphate, resulting in an increase in fluorescence emission at 485 nm when excited at […]. The reactions were therefore read at excitation 360 nm and emission was measured at 485 nm every 50 seconds for 45 minutes using a PerkinElmer EnVision Multilabel Plate Reader.
(§2) The final buffer conditions for Tyk2, JAK1, JAK2, and JAK3 assays were as follows: 25 mM HEPES, pH 7.4, 10 mM MgCl2, 0.01% Triton X-100 and 1 mM DTT.
(§3) Compounds were prepared at 50× the final concentration in DMSO by conducting 3-fold serial dilutions from a 500-μM intermediate dilution to give a 10-point dosing curve having a high dose of 10 μM. Two-μL aliquots of these were transferred to a fresh plate for a ten-fold intermediate dilution with assay buffer. Five-μL aliquots of the diluted compounds were then transferred to 20-μL of assay mixtures described in Examples A, B, C and D for a final concentration of DMSO of 2%. A standard or reference compound was typically included on each assay plate to validate that plate. For each plate, percent of control (POC) values were calculated for each well according to the following equation:
(§4) where Xmax=Average Uninhibited Controls • Xmin=Average Background IC50's were estimated from the POC's using a standard 4-parameter logistic model:
(§5) where • A=Minimum Y (Bottom Asymptote) • B=Maximum Y (Top Asymptote) • C=EC50 • D=Slope Factor • X=Compound Concentration (nM) • Y=POC
(§6) The IC50 is defined as the concentration of inhibitor at which the POC equals 50 for the fitted curve.
Compounds of Formula I were screened for their ability to inhibit Tyk2 using the general enzyme inhibition assay method, in which the assay mixture contained 10 μM (Km app) or 1 mM ATP, 8 μM Omnia® Y12 peptide (Catalog #IVGN KPZ3121C; Invitrogen Corporation, Carlsbad, Calif.) and 2 nM Tyk2 in a total volume of 20 μL. Human Tyk2 kinase domain, comprising amino acids 886 to 1187 with 10 additional histidine residues (histidine tag) on the carboxy terminus, was expressed and purified from bacculovirus in-house at Array BioPharma Inc. (Boulder, Colo.). The histidine tag was cleaved after purification using standard conditions.

The target of another test is T2, JAK3 (Homo sapiens, UniProt P52333).
T2 construct: purchased Invitrogen Corporation, Carlsbad, Calif; PV4080
T2 sequence (P52333 1-1124): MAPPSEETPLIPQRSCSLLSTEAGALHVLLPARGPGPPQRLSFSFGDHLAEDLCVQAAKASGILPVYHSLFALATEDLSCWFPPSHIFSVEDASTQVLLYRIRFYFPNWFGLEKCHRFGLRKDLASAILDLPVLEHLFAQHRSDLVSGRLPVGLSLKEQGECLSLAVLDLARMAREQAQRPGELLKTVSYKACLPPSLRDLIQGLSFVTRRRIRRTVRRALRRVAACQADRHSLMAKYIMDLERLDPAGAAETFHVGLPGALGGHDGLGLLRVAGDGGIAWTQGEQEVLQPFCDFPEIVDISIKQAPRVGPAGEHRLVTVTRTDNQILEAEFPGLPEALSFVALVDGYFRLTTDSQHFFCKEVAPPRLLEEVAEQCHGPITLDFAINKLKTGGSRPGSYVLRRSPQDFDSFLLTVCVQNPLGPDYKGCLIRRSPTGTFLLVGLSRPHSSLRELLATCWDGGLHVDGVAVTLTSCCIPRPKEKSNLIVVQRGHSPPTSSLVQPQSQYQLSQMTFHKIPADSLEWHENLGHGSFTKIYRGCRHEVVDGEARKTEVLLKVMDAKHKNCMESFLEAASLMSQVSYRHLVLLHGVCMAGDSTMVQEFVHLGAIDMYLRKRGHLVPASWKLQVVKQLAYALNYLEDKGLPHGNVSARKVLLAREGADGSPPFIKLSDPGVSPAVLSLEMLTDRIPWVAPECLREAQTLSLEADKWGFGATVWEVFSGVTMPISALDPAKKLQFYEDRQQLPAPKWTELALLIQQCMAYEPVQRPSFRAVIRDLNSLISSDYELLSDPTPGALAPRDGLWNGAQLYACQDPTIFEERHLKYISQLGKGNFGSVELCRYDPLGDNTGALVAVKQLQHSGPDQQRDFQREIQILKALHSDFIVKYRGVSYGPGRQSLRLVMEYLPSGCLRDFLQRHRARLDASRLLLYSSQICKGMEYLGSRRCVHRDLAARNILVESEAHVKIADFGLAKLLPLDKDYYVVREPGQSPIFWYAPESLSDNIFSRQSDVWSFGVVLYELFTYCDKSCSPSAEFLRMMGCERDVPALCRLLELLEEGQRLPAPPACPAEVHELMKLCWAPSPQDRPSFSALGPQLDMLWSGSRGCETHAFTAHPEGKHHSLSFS
Nature of the test: JAK3 Inhibition Assay (Omnia kinase fluorescence peptide substrate assay). Conditions: averaged IC50 ranges; assay of Example D; 10 μM (Km app) or 1 mM ATP, 2.5 nM JAK3.
Text: as §1, §2, §3, §4, §5, §6
Compounds of Formula I were screened for their ability to inhibit JAK3 using the general enzyme inhibition assay method, in which the assay mixture contained 10 μM (Km app) or 1 mM ATP, 10 μM Omnia® Y7 peptide (Catalog #IVGN KNZ3071C, Invitrogen Corporation, Carlsbad, Calif.) and 2.5 nM JAK3 in a total volume of 20 μL. JAK3 was purchased from Invitrogen Corporation, Carlsbad, Calif. (catalog #IVGN PV4080).

For a further test, the target named is T3, JAK1 (Homo sapiens, UniProt P23458).
T3 construct: purchased Invitrogen Corporation, Carlsbad, Calif; PV4775
As to the kind of experiment: JAK1 Inhibition Assay (Omnia kinase fluorescence peptide substrate assay). Conditions: averaged IC50 ranges; assay of Example B; 40 μM (Km app) or 1 mM ATP, 15 nM JAK1.
Text: as §1, §2, §3, §4, §5, §6
Compounds of Formula I were screened for their ability to inhibit JAK1 using the general enzyme inhibition assay method, in which the assay mixture contained 40 μM (Km app) or 1 mM ATP, 8 μM Omnia® Y12 peptide (Catalog #IVGN KPZ3121C; Invitrogen Corporation, Carlsbad, Calif.) and 15 nM JAK1 in a total volume of 20 μL. JAK1 was purchased from Invitrogen Corporation, Carlsbad, Calif. (catalog #IVGN PV4775).

A further test addresses T4, JAK2 (Homo sapiens, UniProt O60674).
T4 construct: purchased Invitrogen Corporation, Carlsbad, Calif; PV4288
As to the kind of experiment: JAK2 Inhibition Assay (Omnia kinase fluorescence peptide substrate assay). To be noted: averaged IC50 ranges; assay of Example C; 25 μM (Km app) or 1 mM ATP, 5 nM JAK2.
Text: as §1, §2, §3, §4, §5, §6
Compounds of Formula I were screened for their ability to inhibit JAK2 using the general enzyme inhibition assay method, in which the assay mixture contained 25 μM (Km app) or 1 mM ATP, 10 μM Omnia® Y7 peptide (Catalog #IVGN KNZ3071C, Invitrogen Corporation, Carlsbad, Calif.) and 5 nM JAK2 in a total volume of 20 μL. JAK2 was purchased from Invitrogen Corporation, Carlsbad, Calif. (catalog #IVGN PV4288).

T4 sequence (O60674 whole entry): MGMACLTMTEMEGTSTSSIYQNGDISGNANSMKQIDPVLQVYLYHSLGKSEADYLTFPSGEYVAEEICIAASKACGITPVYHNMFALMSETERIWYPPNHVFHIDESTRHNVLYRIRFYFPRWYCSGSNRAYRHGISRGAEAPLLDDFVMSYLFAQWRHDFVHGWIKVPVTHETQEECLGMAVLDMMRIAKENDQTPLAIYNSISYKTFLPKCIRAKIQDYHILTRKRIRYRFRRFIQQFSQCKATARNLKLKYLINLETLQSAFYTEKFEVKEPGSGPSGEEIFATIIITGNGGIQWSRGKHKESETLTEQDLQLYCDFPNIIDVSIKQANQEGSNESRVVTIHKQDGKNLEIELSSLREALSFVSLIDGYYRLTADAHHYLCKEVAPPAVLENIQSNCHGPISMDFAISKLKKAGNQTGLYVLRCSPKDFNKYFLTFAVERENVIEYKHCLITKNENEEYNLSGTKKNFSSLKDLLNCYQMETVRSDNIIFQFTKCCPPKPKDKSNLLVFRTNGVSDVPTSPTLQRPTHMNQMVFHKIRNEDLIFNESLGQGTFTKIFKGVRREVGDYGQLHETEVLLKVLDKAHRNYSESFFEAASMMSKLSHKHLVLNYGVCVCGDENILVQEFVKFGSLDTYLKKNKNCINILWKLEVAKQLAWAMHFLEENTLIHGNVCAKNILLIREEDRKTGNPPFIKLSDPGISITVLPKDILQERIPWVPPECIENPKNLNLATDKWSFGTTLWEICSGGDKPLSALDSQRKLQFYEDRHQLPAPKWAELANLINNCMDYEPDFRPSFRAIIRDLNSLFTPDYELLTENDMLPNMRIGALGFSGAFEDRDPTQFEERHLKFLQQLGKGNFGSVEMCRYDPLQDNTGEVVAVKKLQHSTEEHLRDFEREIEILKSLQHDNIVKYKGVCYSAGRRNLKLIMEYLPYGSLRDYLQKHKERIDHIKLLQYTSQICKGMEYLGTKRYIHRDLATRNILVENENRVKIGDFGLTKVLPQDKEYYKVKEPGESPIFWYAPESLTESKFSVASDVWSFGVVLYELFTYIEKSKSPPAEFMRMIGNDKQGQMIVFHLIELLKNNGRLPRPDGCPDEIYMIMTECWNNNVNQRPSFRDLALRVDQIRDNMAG
T3 sequence (P23458 whole entry): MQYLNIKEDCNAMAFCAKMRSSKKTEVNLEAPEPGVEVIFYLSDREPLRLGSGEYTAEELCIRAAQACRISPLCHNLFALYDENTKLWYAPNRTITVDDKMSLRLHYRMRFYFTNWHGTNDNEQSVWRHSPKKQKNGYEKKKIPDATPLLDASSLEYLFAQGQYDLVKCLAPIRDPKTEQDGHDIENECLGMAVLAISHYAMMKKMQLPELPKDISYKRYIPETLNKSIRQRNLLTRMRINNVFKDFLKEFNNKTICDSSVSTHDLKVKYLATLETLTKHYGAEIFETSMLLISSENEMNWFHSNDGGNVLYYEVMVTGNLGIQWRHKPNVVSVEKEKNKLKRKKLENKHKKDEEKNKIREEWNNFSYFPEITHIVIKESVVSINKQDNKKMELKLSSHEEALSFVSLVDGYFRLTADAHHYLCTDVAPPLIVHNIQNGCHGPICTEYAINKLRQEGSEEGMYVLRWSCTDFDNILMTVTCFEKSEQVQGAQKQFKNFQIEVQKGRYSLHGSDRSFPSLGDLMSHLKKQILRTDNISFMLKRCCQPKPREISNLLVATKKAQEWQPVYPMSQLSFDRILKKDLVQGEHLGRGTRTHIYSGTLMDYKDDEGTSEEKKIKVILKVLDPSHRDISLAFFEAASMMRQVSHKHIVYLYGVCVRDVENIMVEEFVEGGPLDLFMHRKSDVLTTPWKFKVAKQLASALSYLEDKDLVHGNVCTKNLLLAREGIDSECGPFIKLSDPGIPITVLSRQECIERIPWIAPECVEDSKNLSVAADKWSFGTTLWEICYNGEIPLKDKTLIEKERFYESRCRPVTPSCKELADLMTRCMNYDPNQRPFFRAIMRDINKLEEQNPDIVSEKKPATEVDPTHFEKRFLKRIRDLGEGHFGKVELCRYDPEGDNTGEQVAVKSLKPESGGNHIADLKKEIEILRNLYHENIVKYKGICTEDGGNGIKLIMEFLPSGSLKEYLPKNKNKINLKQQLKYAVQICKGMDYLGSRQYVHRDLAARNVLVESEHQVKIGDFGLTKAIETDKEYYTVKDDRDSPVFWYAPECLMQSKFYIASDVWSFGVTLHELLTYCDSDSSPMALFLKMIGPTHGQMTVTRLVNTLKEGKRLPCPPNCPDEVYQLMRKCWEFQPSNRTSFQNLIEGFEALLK

Regarding `Cn1cc(-c2cc3nccn3c(-c3cnn(C(CC#N)C4CC4)c3)n2)cn1` (centres unmarked) [Example 2, 3-Cyclopropyl-3-(4-(7-(1-methyl-1H-pyrazol-4-yl)imidazo[1,2-c]pyrimidin-5-yl)-1H-pyrazol-1-yl)propanenitrile], the IC50 (in general, the point on the concentration scale where inhibition reaches its midpoint) on Human Tyk2 kinase domain was less than 0.01 µM; against JAK3, greater than 1 µM; against JAK1, 0.1 to 1 µM; against JAK2, 0.01 to 0.1 µM.
In the same order, the values of `Cn1cc(-c2cc3nccn3c(-c3cnn(C(CC#N)CC(C)(C)C)c3)n2)cn1` (centres unmarked) [Example 5] are 0.01 to 0.1 µM, greater than 1 µM, 0.1 to 1 µM and 0.1 to 1 µM.
Taken in the same sequence, the figures for `Cn1cc(-c2cc3nccn3c(-c3cnn(C(CC#N)c4ccccn4)c3)n2)cn1` (centres unmarked) [Example 6, 3-(4-(7-(1-methyl-1H-pyrazol-4-yl)imidazo[1,2-c]pyrimidin-5-yl)-1H-pyrazol-1-yl)-3-(pyridin-2-yl)propanenitrile] were 0.01 to 0.1 µM, greater than 1 µM, 0.1 to 1 µM and 0.01 to 0.1 µM.
In the same order, the values of `Cn1cc(-c2cc3nccn3c(-c3cnn(C(CC#N)c4cccnc4)c3)n2)cn1` (centres unmarked) [Example 7, 3-(4-(7-(1-methyl-1H-pyrazol-4-yl)imidazo[1,2-c]pyrimidin-5-yl)-1H-pyrazol-1-yl)-3-(pyridin-3-yl)propanenitrile] are less than 0.01 µM, 0.1 to 1 µM, 0.01 to 0.1 µM and 0.01 to 0.1 µM.
With `Cn1cc(-c2cc3nccn3c(-c3cnn(C(CC#N)c4ccncc4)c3)n2)cn1` (centres unmarked) [Example 8, 3-(4-(7-(1-methyl-1H-pyrazol-4-yl)imidazo[1,2-c]pyrimidin-5-yl)-1H-pyrazol-1-yl)-3-(pyridin-4-yl)propanenitrile], the 50% inhibitory concentration (IC50) on Human Tyk2 kinase domain is 0.01 to 0.1 µM; on JAK3 it was greater than 1 µM; on JAK1 it was 0.1 to 1 µM; against JAK2, 0.01 to 0.1 µM.
Consider `COc1cncc(C(CC#N)n2cc(-c3nc(-c4cnn(C)c4)cc4nccn34)cn2)c1` (centres unmarked) [Example 9, 3-(5-methoxypyridin-3-yl)-3-(4-(7-(1-methyl-1H-pyrazol-4-yl)imidazo[1,2-c]pyrimidin-5-yl)-1H-pyrazol-1-yl)propanenitrile], for which the IC50 is 0.01 to 0.1 µM against Human Tyk2 kinase domain, greater than 1 µM against JAK3, 0.1 to 1 µM on JAK1 and 0.01 to 0.1 µM against JAK2.
Regarding `Cn1cc(-c2cc3nccn3c(-c3cnn(C(CC#N)c4cncc(Br)c4)c3)n2)cn1` (centres unmarked) [Example 10, 3-(5-bromopyridin-3-yl)-3-(4-(7-(1-methyl-1H-pyrazol-4-yl)imidazo[1,2-c]pyrimidin-5-yl)-1H-pyrazol-1-yl)propanenitrile], the IC50 against Human Tyk2 kinase domain is less than 0.01 µM; against JAK3, 0.1 to 1 µM; against JAK1, 0.01 to 0.1 µM; on JAK2 it was 0.01 to 0.1 µM.
Take `Cn1cc(-c2cc3nccn3c(-c3cnn(C(CC#N)c4ccccc4)c3)n2)cn1` (centres unmarked) [Example 11, 3-(4-(7-(1-methyl-1H-pyrazol-4-yl)imidazo[1,2-c]pyrimidin-5-yl)-1H-pyrazol-1-yl)-3-phenylpropanenitrile]: the IC50 is less than 0.01 µM against Human Tyk2 kinase domain, 0.1 to 1 µM against JAK3, 0.01 to 0.1 µM at JAK1 and 0.01 to 0.1 µM against JAK2.
With `Cn1cc(-c2cc3nccn3c(-c3cnn(C(CC#N)c4ccccc4Cl)c3)n2)cn1` (centres unmarked) [Example 12, 3-(2-chlorophenyl)-3-(4-(7-(1-methyl-1H-pyrazol-4-yl)imidazo[1,2-c]pyrimidin-5-yl)-1H-pyrazol-1-yl)propanenitrile], the IC50 against Human Tyk2 kinase domain lay in the range of 0.01 to 0.1 µM; against JAK3 it was 0.1 to 1 µM; against JAK1, 0.01 to 0.1 µM; against JAK2, 0.01 to 0.1 µM.
With `Cn1cc(-c2cc3nccn3c(-c3cnn(C(CC#N)c4cccc(Cl)c4)c3)n2)cn1` (centres unmarked) [Example 13, 3-(3-chlorophenyl)-3-(4-(7-(1-methyl-1H-pyrazol-4-yl)imidazo[1,2-c]pyrimidin-5-yl)-1H-pyrazol-1-yl)propanenitrile], the concentration for half-maximal inhibition (IC50) is less than 0.01 µM against Human Tyk2 kinase domain, 0.1 to 1 µM on JAK3, 0.01 to 0.1 µM against JAK1 and less than 0.01 µM on JAK2.
`Cn1cc(-c2cc3nccn3c(-c3cnn(C(CC#N)c4ccc(Cl)cc4)c3)n2)cn1` (centres unmarked) [Example 14, 3-(4-chlorophenyl)-3-(4-(7-(1-methyl-1H-pyrazol-4-yl)imidazo[1,2-c]pyrimidin-5-yl)-1H-pyrazol-1-yl)propanenitrile]: the half-inhibitory concentration (IC50) at Human Tyk2 kinase domain lay within 0.01 to 0.1 µM; on JAK3, 0.1 to 1 µM; at JAK1 it was 0.01 to 0.1 µM; against JAK2 it was 0.01 to 0.1 µM.
